Test results as given in PMC10818746, “Inhibition of CYP1A1 Alleviates Colchicine-Induced Hepatotoxicity” (Toxins, 2024).

What was measured:
Type in all cases: in vitro ADME
Details in all cases: colchicine 25 µM, NADPH 1 mM, CYP 2 pmol/mL, PBS pH 7.4; mean ± SD (n = 2)
[1] = molecular target: T1, CYP1A1 (Homo sapiens, UniProt P04798); experiment: Colchicine metabolism by cDNA-expressed recombinant CYP1A1
T1 construct: purchased Research Institute for Liver Diseases Co., Ltd. (Shanghai, China)
T1 sequence (P04798 1-512): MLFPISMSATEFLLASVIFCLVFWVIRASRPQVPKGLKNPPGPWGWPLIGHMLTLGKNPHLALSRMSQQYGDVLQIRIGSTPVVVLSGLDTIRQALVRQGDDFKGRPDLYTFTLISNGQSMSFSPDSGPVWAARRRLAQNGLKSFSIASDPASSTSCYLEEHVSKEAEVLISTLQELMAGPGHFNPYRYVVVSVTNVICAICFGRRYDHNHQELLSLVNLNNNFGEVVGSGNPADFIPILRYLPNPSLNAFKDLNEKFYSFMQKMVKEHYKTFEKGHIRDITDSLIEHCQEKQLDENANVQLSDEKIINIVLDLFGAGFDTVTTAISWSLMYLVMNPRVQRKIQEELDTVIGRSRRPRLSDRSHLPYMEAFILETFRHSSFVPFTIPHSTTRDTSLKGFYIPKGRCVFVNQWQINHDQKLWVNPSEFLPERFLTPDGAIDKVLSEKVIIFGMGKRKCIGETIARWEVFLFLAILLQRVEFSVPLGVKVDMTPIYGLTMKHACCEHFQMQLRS
Method: (§1) Pre-cooled acetonitrile was used to terminate the reaction, and then centrifugation (4 °C, 12,000 rpm, 20 min) was performed to obtain the sample.
(§2) All samples were analyzed as shown in [17] and are briefly described in Supporting Information. […]
(§3) Supplementary materials and methods
(§4) Reference numbers refer to the main text list
(§5) UHPLC‐Q exactive plus MS Analysis
(§6) All samples were analyzed on a liquid chromatography system including a Vanquish autosampler, Vanquish detector, Vanquish pump (Thremo Fisher Scientific, Santa Clara, CA). Samples were separated on an ACQUITY UPLC HSS T3 column (2.1×100 mm, […], Waters, USA). The injection volume: 5 μL, and the flow rate was 0.3 mL/min.
(§7) Phase A was H2O containing 0.01% formic acid, and phase B was acetonitrile containing 0.01% formic acid. The elution gradient was as follows: 0‐12 mi n, 2‐98% B; 12‐14 min, 2% A; 14‐16 min, 98% A. Other parameters are as follows: column temperature 45 ℃ , flow rate of collision gas and dry gas 9 L/min. Capillary voltage 3.5 kV, temperature 350 ℃ , atomizer pressure 35 psi. Vanquish UHPLC‐Q Exactive plus MS (Thermo Fisher, USA) was collected in both positive modes, operating in full scan mode with 60‐900 m/z. […]

[2] = molecular target: T2, CYP2B6 (Homo sapiens, UniProt P20813); experiment: Colchicine metabolism by cDNA-expressed recombinant CYP2B6
T2 construct: purchased Research Institute for Liver Diseases Co., Ltd. (Shanghai, China)
T2 sequence (P20813 1-491): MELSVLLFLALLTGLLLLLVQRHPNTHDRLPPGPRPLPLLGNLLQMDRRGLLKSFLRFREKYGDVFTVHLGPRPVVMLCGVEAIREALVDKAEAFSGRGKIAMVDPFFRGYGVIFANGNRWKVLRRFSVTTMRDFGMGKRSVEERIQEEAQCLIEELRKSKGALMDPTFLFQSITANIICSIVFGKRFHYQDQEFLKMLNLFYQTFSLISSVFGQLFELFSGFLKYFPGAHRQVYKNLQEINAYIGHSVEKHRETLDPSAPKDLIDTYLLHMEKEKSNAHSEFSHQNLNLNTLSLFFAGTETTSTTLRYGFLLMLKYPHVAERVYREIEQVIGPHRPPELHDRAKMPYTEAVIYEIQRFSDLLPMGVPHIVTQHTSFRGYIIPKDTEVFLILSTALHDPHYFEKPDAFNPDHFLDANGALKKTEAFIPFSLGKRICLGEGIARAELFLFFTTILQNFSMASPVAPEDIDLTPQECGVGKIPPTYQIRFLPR
Method: as §1, §2, §3, §4, §5, §6, §7

[3] = molecular target: T3, CYP2C8 (Homo sapiens, UniProt P10632); experiment: Colchicine metabolism by cDNA-expressed recombinant CYP2C8
T3 construct: purchased Research Institute for Liver Diseases Co., Ltd. (Shanghai, China)
T3 sequence (P10632 1-490): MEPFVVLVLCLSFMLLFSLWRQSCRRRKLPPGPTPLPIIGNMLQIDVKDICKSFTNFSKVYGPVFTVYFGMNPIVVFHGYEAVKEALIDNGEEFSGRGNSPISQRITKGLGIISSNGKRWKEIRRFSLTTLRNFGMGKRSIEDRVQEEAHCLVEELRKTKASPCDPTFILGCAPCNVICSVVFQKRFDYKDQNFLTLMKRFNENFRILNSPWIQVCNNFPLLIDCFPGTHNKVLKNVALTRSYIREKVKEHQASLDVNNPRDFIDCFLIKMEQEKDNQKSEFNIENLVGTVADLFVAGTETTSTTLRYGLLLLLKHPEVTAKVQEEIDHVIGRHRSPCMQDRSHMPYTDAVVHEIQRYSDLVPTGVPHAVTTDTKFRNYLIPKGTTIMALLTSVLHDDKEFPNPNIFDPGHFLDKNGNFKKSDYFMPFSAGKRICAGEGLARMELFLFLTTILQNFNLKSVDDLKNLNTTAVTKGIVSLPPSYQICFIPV
Method: as §1, §2, §3, §4, §5, §6, §7

[4] = molecular target: T4, CYP3A4 (Homo sapiens, UniProt P08684); experiment: Colchicine metabolism by cDNA-expressed recombinant CYP3A4
T4 construct: purchased Research Institute for Liver Diseases Co., Ltd. (Shanghai, China)
T4 sequence (P08684 whole entry): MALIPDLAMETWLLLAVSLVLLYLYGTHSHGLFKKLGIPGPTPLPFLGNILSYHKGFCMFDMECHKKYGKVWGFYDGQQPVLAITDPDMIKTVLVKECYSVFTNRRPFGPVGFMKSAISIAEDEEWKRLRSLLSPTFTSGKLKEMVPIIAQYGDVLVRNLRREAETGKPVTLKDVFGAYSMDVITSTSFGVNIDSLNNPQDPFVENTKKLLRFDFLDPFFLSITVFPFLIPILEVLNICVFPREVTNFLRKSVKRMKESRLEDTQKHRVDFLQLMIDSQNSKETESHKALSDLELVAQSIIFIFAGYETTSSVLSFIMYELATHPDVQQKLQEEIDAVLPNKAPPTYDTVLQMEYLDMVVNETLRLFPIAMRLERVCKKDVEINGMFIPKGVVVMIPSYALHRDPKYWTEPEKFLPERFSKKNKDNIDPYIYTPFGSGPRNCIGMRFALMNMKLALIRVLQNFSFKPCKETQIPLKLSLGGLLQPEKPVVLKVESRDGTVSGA
Method: as §1, §2, §3, §4, §5, §6, §7

[5] = molecular target: T5, CYP2D6 (Homo sapiens, UniProt P10635); experiment: Colchicine metabolism by cDNA-expressed recombinant CYP2D6
T5 construct: purchased Research Institute for Liver Diseases Co., Ltd. (Shanghai, China)
T5 sequence (P10635 whole entry): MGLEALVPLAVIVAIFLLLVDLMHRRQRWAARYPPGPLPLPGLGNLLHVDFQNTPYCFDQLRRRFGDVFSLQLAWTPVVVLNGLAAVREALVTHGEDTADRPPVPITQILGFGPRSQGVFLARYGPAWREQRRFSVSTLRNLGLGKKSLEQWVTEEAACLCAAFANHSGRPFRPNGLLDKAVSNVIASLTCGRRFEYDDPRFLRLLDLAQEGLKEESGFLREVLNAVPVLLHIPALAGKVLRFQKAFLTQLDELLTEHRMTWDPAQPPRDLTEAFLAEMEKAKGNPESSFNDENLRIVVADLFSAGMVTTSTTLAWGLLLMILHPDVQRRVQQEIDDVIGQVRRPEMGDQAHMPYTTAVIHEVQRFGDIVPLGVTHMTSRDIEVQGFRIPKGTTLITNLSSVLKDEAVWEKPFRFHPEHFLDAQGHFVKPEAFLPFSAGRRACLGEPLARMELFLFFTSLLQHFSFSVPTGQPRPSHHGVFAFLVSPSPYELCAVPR
Method: as §1, §2, §3, §4, §5, §6, §7

Structure (SMILES) | peak area of the metabolite after incubation with CYP1A1 as a percentage of the total peak areas from all the CYPs [1] [%] | peak area of the metabolite after incubation with CYP2B6 as a percentage of the total peak areas from all the CYPs [2] [%] | peak area of the metabolite after incubation with CYP2C8 as a percentage of the total peak areas from all the CYPs [3] [%] | peak area of the metabolite after incubation with CYP3A4 as a percentage of the total peak areas from all the CYPs [4] [%] | peak area of the metabolite after incubation with CYP2D6 as a percentage of the total peak areas from all the CYPs [5] [%]
COc1c(O)cc2c(c1O)-c1ccc(OC)c(=O)cc1[C@@H](NC(C)=O)CC2 [M8] | 9.32 ± 5.12 | 10.13 ± 3.38 | 8.61 ± 4.55 | 12.27 ± 1.54 | –
COc1c(O)cc2c(c1OC)-c1ccc(OC)c(=O)cc1[C@@H](NC(C)=O)C=C2 [M5] | 6.87 ± 0.00 | 7.86 ± 0.00 | 7.37 ± 0.00 | 7.72 ± 15.62 | 7.65 ± 11.17
COc1cc2c(c(OC)c1OC)-c1ccc(OC)c(=O)cc1C=CC2 [M6] | 8.78 ± 1.10 | 9.86 ± 0.58 | 6.90 ± 1.01 | 6.55 ± 0.65 | 7.59 ± 0.36
COc1cc2c(c(OC)c1O)-c1ccc(OC)c(=O)cc1[C@@H](NC(C)=O)CC2 [M1] | 3.91 ± 3.16 | 6.90 ± 0.52 | 6.82 ± 0.03 | 14.93 ± 1.41 | 7.91 ± 0.60
COc1cc2c(c(OC)c1OC)-c1ccc(O)c(=O)cc1[C@@H](NC(C)=O)CC2 [M4] | 6.99 ± 0.30 | 7.77 ± 0.57 | 7.21 ± 0.40 | 12.18 ± 0.70 | 11.27 ± 3.15
COc1cc2c(c(O)c1OC)-c1ccc(OC)c(=O)cc1[C@@H](NC(C)=O)CC2 [M2] | 4.51 ± 2.24 | 4.42 ± 0.21 | 3.69 ± 0.02 | 47.73 ± 5.45 | 3.23 ± 0.56
